# Source: ChEMBL document CHEMBL4251634, “Synthesis and antimicrobial activity of pyrimidinyl 1,3,4-oxadiazoles, 1,3,4-thiadiazoles and 1,2,4-triazoles” (2018)
# Legend:
# Assay type in all cases: functional
# Pseudomonas aeruginosa [1] = assay: Bactericidal activity against Pseudomonas aeruginosa incubated for 24 hrs followed by regrowth on sterile nutrient broth for 24 hrs
# Bacillus subtilis [2] = assay: Bactericidal activity against Bacillus subtilis incubated for 24 hrs followed by regrowth on sterile nutrient broth for 24 hrs; design: unit not given here
# Klebsiella pneumoniae [3] = assay: Antibacterial activity against Klebsiella pneumoniae assessed as diameter of inhibition zone at 12.5 ug/well after 24 hrs by agar well diffusion method; conditions: read-out: DIZ
# Pseudomonas aeruginosa [4] = assay: Antibacterial activity against Pseudomonas aeruginosa assessed as diameter of inhibition zone at 12.5 ug/well after 24 hrs by agar well diffusion method; conditions: read-out: DIZ
# Aspergillus niger [5] = assay: Antifungal activity against Aspergillus niger assessed as diameter of inhibition zone at 100 ug/well after 48 hrs by agar well diffusion method; conditions: read-out: DIZ
# Staphylococcus aureus [6] = assay: Antibacterial activity against Staphylococcus aureus assessed as diameter of inhibition zone at 100 ug/well after 24 hrs by agar well diffusion method; conditions: read-out: DIZ
# Aspergillus niger [7] = assay: Antifungal activity against Aspergillus niger after 48 hrs by turbidity-based broth dilution assay
# Penicillium chrysogenum [8] = assay: Antifungal activity against Penicillium chrysogenum assessed as diameter of inhibition zone at 12.5 ug/well after 48 hrs by agar well diffusion method; conditions: read-out: DIZ
# Bacillus subtilis [9] = assay: Antibacterial activity against Bacillus subtilis assessed as diameter of inhibition zone at 25 ug/well after 24 hrs by agar well diffusion method; conditions: read-out: DIZ
# Pseudomonas aeruginosa [10] = assay: Antibacterial activity against Pseudomonas aeruginosa assessed as diameter of inhibition zone at 50 ug/well after 24 hrs by agar well diffusion method; conditions: read-out: DIZ
# Bacillus subtilis [11] = assay: Antibacterial activity against Bacillus subtilis assessed as diameter of inhibition zone at 50 ug/well after 24 hrs by agar well diffusion method; conditions: read-out: DIZ
# Aspergillus niger [12] = assay: Ratio of MFC to MIC for Aspergillus niger
# Pseudomonas aeruginosa [13] = assay: Antibacterial activity against Pseudomonas aeruginosa after 24 hrs by turbidity-based broth dilution assay
# Staphylococcus aureus [14] = assay: Antibacterial activity against Staphylococcus aureus assessed as diameter of inhibition zone at 12.5 ug/well after 24 hrs by agar well diffusion method; conditions: read-out: DIZ
# Pseudomonas aeruginosa [15] = assay: Antibacterial activity against Pseudomonas aeruginosa assessed as diameter of inhibition zone at 25 ug/well after 24 hrs by agar well diffusion method; conditions: read-out: DIZ
# Bacillus subtilis [16] = assay: Antibacterial activity against Bacillus subtilis assessed as diameter of inhibition zone at 12.5 ug/well after 24 hrs by agar well diffusion method; conditions: read-out: DIZ
# Bacillus subtilis [17] = assay: Antibacterial activity against Bacillus subtilis assessed as diameter of inhibition zone at 100 ug/well after 24 hrs by agar well diffusion method; conditions: read-out: DIZ
# Staphylococcus aureus [18] = assay: Antibacterial activity against Staphylococcus aureus after 24 hrs by turbidity-based broth dilution assay
# Pseudomonas aeruginosa [19] = assay: Antibacterial activity against Pseudomonas aeruginosa assessed as diameter of inhibition zone at 100 ug/well after 24 hrs by agar well diffusion method; conditions: read-out: DIZ
# Penicillium chrysogenum [20] = assay: Antifungal activity against Penicillium chrysogenum after 48 hrs by turbidity-based broth dilution assay
# Aspergillus niger [21] = assay: Antifungal activity against Aspergillus niger assessed as diameter of inhibition zone at 25 ug/well after 48 hrs by agar well diffusion method; conditions: read-out: DIZ
# Klebsiella pneumoniae [22] = assay: Antibacterial activity against Klebsiella pneumoniae assessed as diameter of inhibition zone at 100 ug/well after 24 hrs by agar well diffusion method; conditions: read-out: DIZ
# Staphylococcus aureus [23] = assay: Antibacterial activity against Staphylococcus aureus assessed as diameter of inhibition zone at 25 ug/well after 24 hrs by agar well diffusion method; conditions: read-out: DIZ
# Klebsiella pneumoniae [24] = assay: Bactericidal activity against Klebsiella pneumoniae incubated for 24 hrs followed by regrowth on sterile nutrient broth for 24 hrs
# Klebsiella pneumoniae [25] = assay: Antibacterial activity against Klebsiella pneumoniae after 24 hrs by turbidity-based broth dilution assay
# Staphylococcus aureus [26] = assay: Bactericidal activity against Staphylococcus aureus incubated for 24 hrs followed by regrowth on sterile nutrient broth for 24 hrs
# Penicillium chrysogenum [27] = assay: Antifungal activity against Penicillium chrysogenum assessed as diameter of inhibition zone at 50 ug/well after 48 hrs by agar well diffusion method; conditions: read-out: DIZ
# Aspergillus niger [28] = assay: Antifungal activity against Aspergillus niger assessed as diameter of inhibition zone at 50 ug/well after 48 hrs by agar well diffusion method; conditions: read-out: DIZ
# Penicillium chrysogenum [29] = assay: Antifungal activity against Penicillium chrysogenum assessed as diameter of inhibition zone at 25 ug/well after 48 hrs by agar well diffusion method; conditions: read-out: DIZ
# Klebsiella pneumoniae [30] = assay: Antibacterial activity against Klebsiella pneumoniae assessed as diameter of inhibition zone at 25 ug/well after 24 hrs by agar well diffusion method; conditions: read-out: DIZ
# Penicillium chrysogenum [31] = assay: Fungicidal activity against Penicillium chrysogenum incubated for 48 hrs followed by regrowth on PDA plates for 48 hrs
# Penicillium chrysogenum [32] = assay: Antifungal activity against Penicillium chrysogenum assessed as diameter of inhibition zone at 100 ug/well after 48 hrs by agar well diffusion method; conditions: read-out: DIZ
# Aspergillus niger [33] = assay: Fungicidal activity against Aspergillus niger incubated for 48 hrs followed by regrowth on PDA plates for 48 hrs
# Klebsiella pneumoniae [34] = assay: Antibacterial activity against Klebsiella pneumoniae assessed as diameter of inhibition zone at 50 ug/well after 24 hrs by agar well diffusion method; conditions: read-out: DIZ
# Staphylococcus aureus [35] = assay: Antibacterial activity against Staphylococcus aureus assessed as diameter of inhibition zone at 50 ug/well after 24 hrs by agar well diffusion method; conditions: read-out: DIZ
# Aspergillus niger [36] = assay: Antifungal activity against Aspergillus niger assessed as diameter of inhibition zone at 12.5 ug/well after 48 hrs by agar well diffusion method; conditions: read-out: DIZ
compound,measurement,setting,value
Cc1cc(SCc2nnc(-c3ccc(Cl)cc3)n2N)nc(SCc2nnc(-c3ccc(Cl)cc3)n2N)n1,MBC,Pseudomonas aeruginosa [1],100 µg
same,MBC,Bacillus subtilis [2],200
same,zone of inhibition at 12.5 µg/disc,Klebsiella pneumoniae [3],22 mm
same,zone of inhibition at 12.5 µg/disc,Pseudomonas aeruginosa [4],18 mm
same,zone of inhibition at 100 µg/disc,Aspergillus niger [5],38 mm
same,zone of inhibition at 100 µg/disc,Staphylococcus aureus [6],15 mm
same,MIC,Aspergillus niger [7],6.25 µg
same,zone of inhibition at 12.5 µg/disc,Penicillium chrysogenum [8],21 mm
same,zone of inhibition at 25 µg/disc,Bacillus subtilis [9],18 mm
same,zone of inhibition at 50 µg/disc,Pseudomonas aeruginosa [10],24 mm
same,zone of inhibition at 50 µg/disc,Bacillus subtilis [11],20 mm
same,Ratio,Aspergillus niger [12],2
same,MIC,Pseudomonas aeruginosa [13],25 µg
same,zone of inhibition at 12.5 µg/disc,Staphylococcus aureus [14],10 mm
same,zone of inhibition at 25 µg/disc,Pseudomonas aeruginosa [15],21 mm
same,zone of inhibition at 12.5 µg/disc,Bacillus subtilis [16],16 mm
same,zone of inhibition at 100 µg/disc,Bacillus subtilis [17],24 mm
same,MIC,Staphylococcus aureus [18],100 µg
same,zone of inhibition at 100 µg/disc,Pseudomonas aeruginosa [19],27 mm
same,MIC,Penicillium chrysogenum [20],25 µg
same,zone of inhibition at 25 µg/disc,Aspergillus niger [21],33 mm
same,zone of inhibition at 100 µg/disc,Klebsiella pneumoniae [22],29 mm
same,zone of inhibition at 25 µg/disc,Staphylococcus aureus [23],11 mm
same,MBC,Klebsiella pneumoniae [24],100 µg
same,MIC,Klebsiella pneumoniae [25],25 µg
same,MBC,Staphylococcus aureus [26],>200 µg
same,zone of inhibition at 50 µg/disc,Penicillium chrysogenum [27],25 mm
same,zone of inhibition at 50 µg/disc,Aspergillus niger [28],35 mm
same,zone of inhibition at 25 µg/disc,Penicillium chrysogenum [29],23 mm
same,zone of inhibition at 25 µg/disc,Klebsiella pneumoniae [30],24 mm
same,MFC,Penicillium chrysogenum [31],100 µg
same,zone of inhibition at 100 µg/disc,Penicillium chrysogenum [32],29 mm
same,MFC,Aspergillus niger [33],12.5 µg
same,zone of inhibition at 50 µg/disc,Klebsiella pneumoniae [34],26 mm
same,zone of inhibition at 50 µg/disc,Staphylococcus aureus [35],13 mm
same,zone of inhibition at 12.5 µg/disc,Aspergillus niger [36],32 mm
